{"source": "patent US10945438B2", "about": "“Methods and compositions for reducing fungal infestation and improving grass quality” (BASF CORPORATION, priority 2015, dated 2021)", "tested_on": "yellow spot", "experiment": "Percent turf area exhibiting yellow spot symptoms (Example 2)", "format": "in vivo, Agrostis palustris", "settings": "alone versus in combination", "experimental": "In another aspect, a composition herein treats or reduces yellow spot disease. Yellow spot appears in the form of yellow, chlorotic, circular discrete patches ranging from dime/quarter size up to 2-3 inches diameter on bentgrass putting greens, tees, and approaches.\nThe study was conducted on “A-1” creeping bentgrass maintained as a golf course putting green. Plots were mowed 6 times per week with clippings collected. The study was irrigated to prevent drought stress. Individual plots were 3 ft×6 ft and arranged in a randomized complete block design with 4 replications. Chipco 26GT (4 fl oz/1000 ft^2) was applied to the study for suppression of dollar spot and brown patch on 2 May, 9 June, 29 July, and 20 August. Treatments were applied in water equivalent to 2 gal 1000 ft-2 with a CO2-powered sprayer equipped with a TeeJet AI9508E nozzle at 50 psi. Treatments were initiated on 24 April and applied on 28-day intervals. The study was irrigated with 0.1-0.2 inches of water after all treatments were applied. […] Turfgrass quality was assessed on 24 April, 21 May, 18 June, 16 July, 13 August, and 2 September. NDVI was assessed on 21 May, 18 June, 17 July, 13 August, and 2 September. Root length (3 subsamples per plot) was assessed on 18 September."}
{"compound": "CCCOC(=O)NCCCN(C)C", "note": "[propamocarb]", "values": [{"measurement": "Control of yellow spot disease (in words)", "value": "not controlled"}]}
